Drawing on BindingDB's records for doi:10.1016/s0960-894x(00)00136-0 (Iowa State University, 2000), this text covers IC50 for one compound.

The target of experiment [1] is Endothelin receptor type B (rabbit). Description: Tested for binding affinity towards rabbit Endothelin B receptor.
In experiment [2] the target is Endothelin-1 receptor (rabbit). As to the kind of experiment: Tested for binding affinity towards rabbit Endothelin A receptor.

In the case of `C/C=C/C=C/C(=O)O[C@@H]1C=C2COC(O)[C@]2(O)[C@@]2(C)CCCC(C)(C)C12` (stereo partly drawn) [(2E,4E)-Hexa-2,4-dienoic acid (5R,9aS,9bS)-1,9b-dihydroxy-6,6,9a-trimethyl-1,3,5,5a,6,7,8,9,9a,9b-decahydro-naphtho[1,2-c]furan-5-yl ester], the IC50 in experiment [1] was determined as 70 µM; in experiment [2], 50 µM.
